Values of other authors, collected in patent US6921754B2, “Compositions containing folic acid and reduced folate” (BASF Aktiengesellschaft, priority 2000, dated 2005).

System: neural tube defects (NTDs) in neonates
Settings: supplementation of pregnant women with 0.4 to 4 mg of folic acid/day (Hages et al., 1996)

SMILES: Nc1nc2ncc(CNc3ccc(C(=O)N[C@@H](CCC(=O)O)C(=O)O)cc3)nc2c(=O)[nH]1 [folic acid, N-[4-(2-Amino-3,4-dihydro-4-oxo-6-pteridinylmethylamino)-benzoyl]-L-glutamic acid]
- decrease in the frequency of abnormalities in newborn infants: 50-80%
